System: 2-nonenal
Assay: Reduction in skin odor: 2-nonenal in urine of mice fed D2-LA ethyl ester
Type: in vivo
Conditions: BALB/c mice; feed supplemented daily, no more than about 10% of PUFAs ingested; after 4 weeks of dosing; urine collected over 2 days; versus LA ethyl ester cohort
Experimental: Mice are known to generate skin odor and the causative agent is 2-nonenal. This example explores the contribution of lipid chain auto-oxidation to the generation of such skin odor. Specifically, two cohorts of BALB/c mice are tested. The feed of the first cohort is supplemented daily with D2-LA ethyl ester in an amount such that D2-LA ethyl ester constitutes no more than about 10% of the PUFAs ingested. The feed provided to the other cohort is supplemented with LA ethyl ester in otherwise identical amounts. After 4 weeks of dosing, the urine from each cohort is collected over a 2-day period and then analyzed to assess differences in the amount of 2-nonenal. Alternatively, skin samples can be evaluated for sebum exudates such as by swabs for chemical components.

[2H]C([2H])(/C=C\CCCCC)/C=C\CCCCCCCC(=O)OCC [D2-linoleic acid ethyl ester]
amount of 2-nonenal: significant reduction

Reference: US20210244637A1, “DEUTERATED POLYUNSATURATED FATTY ACIDS OR ESTERS THEREOF FOR COSMETIC APPLICATIONS” (Retrotope, Inc., priority 2020, published 2021)
